Laboratory results as given in patent publication US20200247808A1, “Heterocyclic Tec-Family Kinase Inhibitors” (GB005, Inc., priority 2015, published 2020).
Read-outs that look alike come from different tables or passages of the source.

Key:
splenocytes = assay: Splenic cell proliferation assay (anti-IgM stimulated, Cell Titer-Glo); format: cell-based, mouse (CD1); conditions: Splenocyte; mouse splenocytes, 2.5 μg/ml anti-IgM F(ab')2, 72 h; read-out: Spleen cell EC50
Protocol: Proliferation of splenocytes in response to anti-IgM can be blocked by inhibition of BTK. Splenocytes were obtained from 6 week old male CD1 mice (Charles River Laboratories Inc.). Mouse spleens were manually disrupted in PBS and filtered using a 70um cell strainer followed by ammonium chloride red blood cell lysis. Cells were washed, resuspended in Splenocyte Medium (HyClone RPMI supplemented with 10% heat-inactivated FBS, 0.5X non-essential amino acids, 10 mM HEPES, 50 μM beta mercaptoethanol) and incubated at 37° C., 5% CO2 for 2h to remove adherent cells. Suspension cells were seeded in 96 well plates at 50,000 cells per well and incubated at 37° C., 5% CO2 for 1h. Splenocytes were pre-treated in triplicate with 10,000 nM curves of Formula 1 compounds for 1h, followed by stimulation of cell proliferation with 2.5 μg/ml anti-IgM
F(ab′)2 (Jackson ImmunoResearch) for 72 h. Cell proliferation was measured by Cell Titer-Glo Luminescent Assay (Promega). EC50 values (50% proliferation in the presence of compound as compared to vehicle treated controls) were calculated from dose response compound curves using GraphPad Prism Software.

[1] = Formation of glutathione adducts (GSH reactivity, HPLC-UV); format: in vitro ADME; conditions: 10 mM GSH, 20 micromolar test article, pH 7.4, 37° C.
Protocol: Generation of non-specific thiol adducts can be measured by assaying reactivity of compounds with GSH. Formation of GSH adducts was measured by incubating GSH (10 mM) in 100 mM Phosphate Buffer pH 7.4 with test article at 20 micromolar final concentration. Briefly, 600 microliters of phosphate buffer pH 7.4 was added in a glass vial with 200 microliters of 100 micromolar test article in DMSO. Samples were warmed at 37° C. for 10 minutes and the reaction was initiated by the addition of 200 microliters of 50 mM reduced GSH in phosphate buffer pH 7.4 and incubated at 37° C. At various time points (0.5 min, 5 min, 15 min, 30 min, 60 min, 120 min and 180 min) 50 microliter aliquots were placed into an injection vial equipped with an insert and mixed with 50 microliters of 1% formic acid in 99% Methanol. Vials were loaded onto the HPLC injection tray and each sample was injected onto a C18 column (ACE 3 C18, 4.6×50 mm column) and both the parent and product were monitored by UV absorbance at 254 nm on an Agilent Technologies 1100 series HPLC. Peaks were integrated and the percentage of product present calculated as the percent of the total peak area on the parent and product at 60 minutes.

[2] = Mouse plasma pharmacokinetics; format: in vivo, mouse (CD-1); conditions: male, CD-1, mouse, mice; for AUC / Cmax: free base; for bioavailability: oral 10 mg/kg vs intravenous 3 mg/kg
Protocol: Plasma pharmacokinetic studies were conducted in CD1 mice to compare the plasma exposure following oral and intravenous administration of the free-base form of each compound to mice and to calculate bioavailability. Male CD-1 mice (25-30 g on delivery; Charles River) were used for mouse PK studies. The mice were housed 3 per cage in a room under controlled conditions of temperature ([…]) and humidity (40-70%), with a 12 h dark/light cycle. The animals were acclimated for a minimum of 3 days prior to use and received standard rodent chow (Charles River) and municipal tap water ad libitum. Nine animals were used per study, they were dosed PO or IV and bled from the mandibular vein, 2 to 3 times per animal at the following time points; pre dose, 15 and 30 min, 1, 2, 3, 5, 7 and 24 h (0.1 mL whole blood /time point; composite PK). Blood was collected into microvette K3E tubes ([…]) at RT and then centrifuged at 5,000 RPM for 2 min at 4° C. in order to separate plasma. Isolated plasma (0.015 mL/time point) was pipetted into 96 well plates (Canadian Life Science) which were stored at minus 20° C. until analysis (2 duplicate plates per study).
Concentrations of compound in rodent plasma samples were determined by LC-MS-MS. Two standard curves containing 8 points each were prepared by spiking in methanol or plasma with a solution containing the test article at a defined concentration. The range of final compound concentration in the standard curve was 0 to 1 μg/mL. Three sets of quality control (QC) samples in plasma at low, medium and high concentration within the standard curve range were also prepared. For analysis, the compound was extracted using protein precipitation extraction procedure. Briefly, a three-fold volume of methanol containing an internal standard was added to the plasma and standard curve solution samples and then incubated at 4° C. for 5 minutes. The plates were centrifuged for 30 minutes at 4° C. at 4000 rpm and the resulting supernatant was transferred to a 96-well propylene plates and sealed with cover to avoid sample evaporation. Ten μL aliquots of extracted samples were injected using a 96-well plate autosampler held at 4° C. onto a ACE C18 50×4.6 mm, 3 um HPLC column held at 30° C. Plasma derived parent compound was eluted using the following conditions: pump flow rate was set at 1 mL/min for a five minutes chromatographic method using a 3 min gradient elution from 20% solvent A (0.1% formic acid in water) and 80% solvent B (0.1% Formic Acid in Methanol) to 10% solvent A and 90% solvent B. The method was followed by 1 min column wash at 95% solvent B and 1 min column re-equilibration back to 80% solvent B. Under these conditions the compound was eluted after 1.8 minutes. For LC-MS-MS compound detection, the curtain gas was set at 10, collision gas was set at 8, ion spray voltage was set at 4500, temperature was set at 500, ion source gas 1 was set at 40 and ion source gas 2 was set at 60. Using a positive ionization mode, the MRM transition monitored was set at […]. Under these conditions, standard curves were linear up to 2000 ng/mL, the lower limit of quantification was generally at 10 ng/mL.
The area under the curve (AUCtot and AUClast), the maximum plasma concentration (Cmax) and time (Tmax), and terminal half life (T1/2), clearance and volume of distribution were calculated by regression analysis using Kinetica version 5.0 (Thermo Fisher Scientific) using a Non-Compartmental Extravascular/IV Bolus analysis model.

[3] = intravenous 3 mg/kg, read-out: Intravenous AUC
[4] = oral 10 mg/kg, read-out: Oral AUC

Row | GSH Reactivity GSH Conjugate at 60 minutes [1] | AUC [2, 3] [ng·h/mL] | bioavailability [2] [%] | Cmax ([2]; oral 10 mg/kg) [ng/mL] | AUC [2, 4] [ng·h/mL] | Structure (SMILES) | EC50 (splenocytes) [pM]
1 | 7.3 % of total Peaks | 841 | 52 | 1280 | 1450 | CC#CC(=O)N[C@H]1C[C@@H](n2nc(-c3ccc(Oc4ccccc4)cc3)c3c(N)ncnc32)C1 [Compound 1] | 200
2 | 14.2 % of total Peaks | 954 | 45 | 1350 | 1440 | C=CC(=O)N[C@H]1C[C@@H](n2nc(-c3ccc(Oc4ccccc4)cc3)c3c(N)ncnc32)C1 [Compound 2] | 300
